According to patent publication US9371265B2, “Compositions and methods related to inhibitors of JAK kinase” (EP PHARMA, INC., priority 2012, dated 2016):

Tests used:
[1] = system: IL-2/JAK3-dependent Kit225 cells; assay: Kit225 cell viability (MTS); type: cell-based, human
Method: FIGS. 2A-2F. […] (B) Kit225 or (C) BaF/3 cells cultured in the presence of IL-2 or IL-3, respectively, were treated with vehicle (PBS; lane a) or increasing amounts of EP009 (0-50 μM; lanes b-h) for 12 hours. Cells were then lysed, clarified, and immunoprecipitated (IP) with anti-JAK3 (α-JAK3) or anti-JAK2 (α-JAK2), and subjected to Western blot (WB) analysis with anti-phosphotyrosine (α-pY). Blots were stripped and reprobed with corresponding antibody to verify equivalent protein loading. (D) Immunopurified JAK3 was subjected to in vitro autokinase analysis after treatment with vehicle (DMSO; lanes a and b) or ascending concentrations of EP009 (0-10 μM; lanes c-f) for 1 hour at room temperature. […] (E) Kit225 or BaF/3 cells were cultured with increasing amounts of EP009 (0-10 μM) for 72 hours and cell viability measured with the MTS tetrazolium salt assay. Values represent mean absorbance (OD490-OD650 nm) normalized to vehicle (PBS) treated control cells, while error bars represent the standard deviation (n=3). (F) HEK293, HEPG2, or naïve primary human PBMCs were cultured with increasing amounts of EP009 (0-10 μM) for 72 hours and cell viability measured with the MTS tetrazolium salt assay. Values represent mean absorbance (OD490-OD650 nm) normalized to vehicle (PBS) treated control cells, while error bars represent the standard deviation (n=3). […]

H2228 = H2228 cell viability (MTS); type: cell-based, human; settings: 0-10 μM, 72 hours
Method: FIGS. 7A-7C. EP009 reduces ALCL cell viability through induction of caspase 3 mediated apoptosis. (A) SUP-M2, SU-DHL-1 or H2228 cells were cultured with increasing amounts of EP009 (0-10 μM) for 72 hours and cell viability measured with the MTS tetrazolium salt assay. Values represent mean absorbance (OD490-OD650 nm) normalized to vehicle (PBS) treated control cells, while error bars represent the standard deviation (n=3). (B) SU-DHL-1 cells were treated with vehicle (PBS) or increasing amounts of EP009 (0-50 μM) for 24 hours. Cells were then lysed, clarified, and subjected to Luminex multiplex analysis to detect activated caspase 3 and (C) cleaved PARP. Values represent MFI normalized to corresponding GAPDH MFI, while error bars represent the standard deviation (n=2). Representative data from three independent experiments are shown. Statistical significance was determined using Student's t-test. (*, p<0.05).
Cell viability was assessed with 3-(4,5-dimethylthiazol-2-yl)-5-(3-carboxymethoxyphenyl)-2-(4-sulfophenyl)-2H-tetrazolium salt (MTS) reagent (Promega) in triplicates according to the manufacturer's instructions. Three independent experiments were performed. The error bars represent standard deviation.

[2] = target: ABL1(T315I)-phosphorylated (Homo sapiens, UniProt P00519, T315I); assay: Kinase panel: ABL1(T315I)-phosphorylated; type: biochemical; settings: 10 μM EP009
Method: (§1) Achieving JAK3 selectivity remains a significant challenge in the development of new small molecules for the treatment of cancer and immune-derived diseases. As such, the inventors employed cell-based screening assays of small-molecule libraries based upon the chemical scaffold of the established JAK3 inhibitor NC1153 (Stepkowski et al., J Immunol. (2005), 175(7):4236-4246) EP009 (FIG. 2A) was selected as a lead compound due to improved intrinsic stability (>95% purity in various solvents at 37° C. for 24 hours; FIG. 3) and high-degree of JAK3 selectivity. To test JAK3 versus JAK2 specificity of EP009, the IL-2/JAK3-dependent Kit225, and IL-3/JAK2-dependent BaF/3 cell lines were used. Kit225 and BaF/3 cells growing in the presence of IL-2 or IL-3, respectively, were treated with ascending concentrations of EP009 for 12 hours and cellular JAK3 and JAK2 tyrosine phosphorylation levels detected by Western blot analysis (FIGS. 2B and 2C). Following densitometric analysis, EP009 was determined to dose-dependently reduce IL-2-mediated JAK3 tyrosine phosphorylation with a cellular 50% inhibitory concentration (IC50) between 10 and 20 μM (FIG. 2B). […] To globally evaluate specificity, the inhibitory activity of EP009 was measured against a panel of protein kinases distributed throughout the kinome using the scanEDGE profiling service (KINOMEscan). […]

IGF1R = IGF1R (Homo sapiens, UniProt P08069); assay: Kinase panel: IGF1R; type: biochemical; settings: 10 μM EP009
Sequence of IGF1R (P08069 31-1367): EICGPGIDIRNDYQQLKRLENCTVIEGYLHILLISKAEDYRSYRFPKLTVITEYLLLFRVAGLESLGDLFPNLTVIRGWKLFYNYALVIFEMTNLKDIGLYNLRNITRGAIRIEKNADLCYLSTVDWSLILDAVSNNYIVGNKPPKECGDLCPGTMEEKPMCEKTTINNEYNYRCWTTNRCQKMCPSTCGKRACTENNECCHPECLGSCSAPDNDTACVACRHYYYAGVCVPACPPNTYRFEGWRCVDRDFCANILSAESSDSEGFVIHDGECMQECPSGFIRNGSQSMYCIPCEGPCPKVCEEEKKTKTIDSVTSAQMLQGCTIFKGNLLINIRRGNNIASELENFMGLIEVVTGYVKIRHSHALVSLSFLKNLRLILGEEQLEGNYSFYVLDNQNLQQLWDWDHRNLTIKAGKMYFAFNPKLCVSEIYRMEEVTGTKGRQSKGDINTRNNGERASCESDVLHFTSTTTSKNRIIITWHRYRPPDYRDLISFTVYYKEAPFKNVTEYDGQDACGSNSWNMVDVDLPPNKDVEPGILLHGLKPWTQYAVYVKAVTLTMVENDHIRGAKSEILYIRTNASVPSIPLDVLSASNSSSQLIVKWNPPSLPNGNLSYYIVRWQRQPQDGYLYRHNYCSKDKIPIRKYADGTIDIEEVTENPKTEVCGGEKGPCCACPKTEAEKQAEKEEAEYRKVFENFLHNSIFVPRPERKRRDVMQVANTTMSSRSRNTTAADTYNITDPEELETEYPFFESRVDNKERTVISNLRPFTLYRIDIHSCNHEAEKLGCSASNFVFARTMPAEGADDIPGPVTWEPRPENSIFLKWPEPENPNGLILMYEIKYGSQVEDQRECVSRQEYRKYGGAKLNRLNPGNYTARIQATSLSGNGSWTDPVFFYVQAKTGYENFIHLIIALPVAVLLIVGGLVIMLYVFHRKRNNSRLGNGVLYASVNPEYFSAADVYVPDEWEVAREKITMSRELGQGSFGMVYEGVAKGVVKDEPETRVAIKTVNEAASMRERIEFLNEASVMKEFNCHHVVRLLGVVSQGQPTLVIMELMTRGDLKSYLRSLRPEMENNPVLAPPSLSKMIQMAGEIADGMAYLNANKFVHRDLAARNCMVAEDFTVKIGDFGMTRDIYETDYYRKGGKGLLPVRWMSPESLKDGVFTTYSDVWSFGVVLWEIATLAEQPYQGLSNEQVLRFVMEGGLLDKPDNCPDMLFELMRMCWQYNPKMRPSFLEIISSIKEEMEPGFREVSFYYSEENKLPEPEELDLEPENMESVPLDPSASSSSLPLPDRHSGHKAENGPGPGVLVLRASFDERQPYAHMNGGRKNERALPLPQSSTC
Method: as §1

MAPKAPK2 = MAPKAPK2 (Homo sapiens, UniProt P49137); assay: Kinase panel: MAPKAPK2; type: biochemical; settings: 10 μM EP009
Sequence of MAPKAPK2 (P49137 whole entry): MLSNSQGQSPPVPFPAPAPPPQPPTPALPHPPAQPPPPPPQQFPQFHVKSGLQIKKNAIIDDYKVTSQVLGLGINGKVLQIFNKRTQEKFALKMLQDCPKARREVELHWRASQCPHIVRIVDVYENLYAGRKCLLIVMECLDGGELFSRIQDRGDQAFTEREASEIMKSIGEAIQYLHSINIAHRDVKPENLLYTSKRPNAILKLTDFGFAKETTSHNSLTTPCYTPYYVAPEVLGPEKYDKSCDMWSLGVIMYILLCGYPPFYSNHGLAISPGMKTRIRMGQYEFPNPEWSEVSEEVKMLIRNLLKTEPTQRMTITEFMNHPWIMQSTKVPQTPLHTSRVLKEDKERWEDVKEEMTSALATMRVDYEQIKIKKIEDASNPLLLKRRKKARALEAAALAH
Method: as §1

MARK3 = MARK3 (Homo sapiens, UniProt P27448); assay: Kinase panel: MARK3; type: biochemical; settings: 10 μM EP009
Sequence of MARK3 (P27448 whole entry): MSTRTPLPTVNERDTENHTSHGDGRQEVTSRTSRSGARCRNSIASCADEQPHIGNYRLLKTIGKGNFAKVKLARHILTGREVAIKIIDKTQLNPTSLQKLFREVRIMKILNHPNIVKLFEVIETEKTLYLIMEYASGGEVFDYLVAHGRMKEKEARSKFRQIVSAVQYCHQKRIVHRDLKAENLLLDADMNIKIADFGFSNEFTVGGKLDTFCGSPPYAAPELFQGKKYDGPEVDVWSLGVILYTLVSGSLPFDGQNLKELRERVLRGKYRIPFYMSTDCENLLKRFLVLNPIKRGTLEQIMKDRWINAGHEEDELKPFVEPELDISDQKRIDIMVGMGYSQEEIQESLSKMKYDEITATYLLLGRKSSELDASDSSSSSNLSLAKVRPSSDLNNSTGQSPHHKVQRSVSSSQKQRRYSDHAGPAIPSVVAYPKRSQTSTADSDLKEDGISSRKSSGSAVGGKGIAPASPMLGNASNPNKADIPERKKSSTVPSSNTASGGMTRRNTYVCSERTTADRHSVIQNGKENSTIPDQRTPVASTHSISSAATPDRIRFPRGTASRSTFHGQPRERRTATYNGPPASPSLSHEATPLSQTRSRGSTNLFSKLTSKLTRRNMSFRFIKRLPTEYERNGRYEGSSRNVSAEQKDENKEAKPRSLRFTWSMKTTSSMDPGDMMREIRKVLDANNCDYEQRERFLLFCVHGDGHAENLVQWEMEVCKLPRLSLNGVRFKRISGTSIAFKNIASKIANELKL
Method: as §1

MEK2 = MEK2 (Homo sapiens, UniProt P36507); assay: Kinase panel: MEK2; type: biochemical; settings: 10 μM EP009
Sequence of MEK2 (P36507 whole entry): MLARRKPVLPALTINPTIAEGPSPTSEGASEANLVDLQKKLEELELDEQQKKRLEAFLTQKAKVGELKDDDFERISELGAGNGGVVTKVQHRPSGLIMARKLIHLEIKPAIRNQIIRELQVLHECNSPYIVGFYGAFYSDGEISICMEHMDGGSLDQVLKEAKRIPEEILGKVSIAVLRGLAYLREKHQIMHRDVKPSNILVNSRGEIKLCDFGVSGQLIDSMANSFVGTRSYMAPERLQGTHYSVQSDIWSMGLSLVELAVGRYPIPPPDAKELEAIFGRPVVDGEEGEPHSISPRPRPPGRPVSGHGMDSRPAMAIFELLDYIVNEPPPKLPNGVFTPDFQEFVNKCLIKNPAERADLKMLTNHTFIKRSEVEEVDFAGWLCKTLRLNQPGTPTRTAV
Method: as §1

PCTK1 = PCTK1 (Homo sapiens, UniProt Q00536); assay: Kinase panel: PCTK1; type: biochemical; settings: 10 μM EP009
Sequence of PCTK1 (Q00536 whole entry): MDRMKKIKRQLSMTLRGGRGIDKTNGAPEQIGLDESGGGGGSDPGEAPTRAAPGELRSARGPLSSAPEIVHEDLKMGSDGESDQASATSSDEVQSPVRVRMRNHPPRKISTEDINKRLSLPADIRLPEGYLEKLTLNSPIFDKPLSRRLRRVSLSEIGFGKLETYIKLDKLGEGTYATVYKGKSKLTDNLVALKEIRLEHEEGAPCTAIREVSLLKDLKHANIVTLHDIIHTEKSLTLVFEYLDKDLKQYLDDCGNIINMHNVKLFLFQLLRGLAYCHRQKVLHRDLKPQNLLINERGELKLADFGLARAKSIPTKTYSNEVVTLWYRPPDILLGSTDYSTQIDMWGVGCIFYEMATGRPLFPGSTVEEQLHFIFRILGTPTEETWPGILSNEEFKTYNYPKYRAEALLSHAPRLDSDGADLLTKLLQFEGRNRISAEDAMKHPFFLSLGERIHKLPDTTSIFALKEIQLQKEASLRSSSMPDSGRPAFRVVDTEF
Method: as §1

PIM3 = PIM3 (Homo sapiens, UniProt Q86V86); assay: Kinase panel: PIM3; type: biochemical; settings: 10 μM EP009
Method: as §1

SMILES: C=C1CCCCCCCCCC(CO)C1=O (stereo not shown) [EP009, 2-(Hydroxymethyl)-12-methylenecyclododecanone]
- concentration resulting in maximal loss of Kit225 cell viability ([1]; 72 hours): 7.5 to 10 µM
- cytotoxicity at 5 µM ([1]; Homo sapiens, Kit225, 5.0 μM EP009, 72 hours, read-out: reduction in cell viability): 55%
- effect on H2228 cell viability (H2228): no effect
- Kinase Activity (% of Control) [2]: 100 % of Control
- Kinase Activity (% of Control) (IGF1R): 100 % of Control
- Kinase Activity (% of Control) (MAPKAPK2): 100 % of Control
- Kinase Activity (% of Control) (MARK3): 100 % of Control
- Kinase Activity (% of Control) (MEK2): 84 % of Control
- Kinase Activity (% of Control) (PCTK1): 85 % of Control
- Kinase Activity (% of Control) (PIM3): 100 % of Control
